Test results: ChEMBL document CHEMBL5150004, “Targeting Rearranged during Transfection in Cancer: A Perspective on Small-Molecule Inhibitors and Their Clinical Development” (J Med Chem, 2021)
Each block holds one compound with its values, some of them ahead of it.

Experiments:
[1] = target: Vascular endothelial growth factor receptor 2 (Homo sapiens, UniProt P35968); test: Inhibition of recombinant VEGFR2 (unknown origin) incubated for 120 mins by Perkin Elmer electrophoretic mobility shift platform method
Chain of Vascular endothelial growth factor receptor 2 (P35968 whole entry): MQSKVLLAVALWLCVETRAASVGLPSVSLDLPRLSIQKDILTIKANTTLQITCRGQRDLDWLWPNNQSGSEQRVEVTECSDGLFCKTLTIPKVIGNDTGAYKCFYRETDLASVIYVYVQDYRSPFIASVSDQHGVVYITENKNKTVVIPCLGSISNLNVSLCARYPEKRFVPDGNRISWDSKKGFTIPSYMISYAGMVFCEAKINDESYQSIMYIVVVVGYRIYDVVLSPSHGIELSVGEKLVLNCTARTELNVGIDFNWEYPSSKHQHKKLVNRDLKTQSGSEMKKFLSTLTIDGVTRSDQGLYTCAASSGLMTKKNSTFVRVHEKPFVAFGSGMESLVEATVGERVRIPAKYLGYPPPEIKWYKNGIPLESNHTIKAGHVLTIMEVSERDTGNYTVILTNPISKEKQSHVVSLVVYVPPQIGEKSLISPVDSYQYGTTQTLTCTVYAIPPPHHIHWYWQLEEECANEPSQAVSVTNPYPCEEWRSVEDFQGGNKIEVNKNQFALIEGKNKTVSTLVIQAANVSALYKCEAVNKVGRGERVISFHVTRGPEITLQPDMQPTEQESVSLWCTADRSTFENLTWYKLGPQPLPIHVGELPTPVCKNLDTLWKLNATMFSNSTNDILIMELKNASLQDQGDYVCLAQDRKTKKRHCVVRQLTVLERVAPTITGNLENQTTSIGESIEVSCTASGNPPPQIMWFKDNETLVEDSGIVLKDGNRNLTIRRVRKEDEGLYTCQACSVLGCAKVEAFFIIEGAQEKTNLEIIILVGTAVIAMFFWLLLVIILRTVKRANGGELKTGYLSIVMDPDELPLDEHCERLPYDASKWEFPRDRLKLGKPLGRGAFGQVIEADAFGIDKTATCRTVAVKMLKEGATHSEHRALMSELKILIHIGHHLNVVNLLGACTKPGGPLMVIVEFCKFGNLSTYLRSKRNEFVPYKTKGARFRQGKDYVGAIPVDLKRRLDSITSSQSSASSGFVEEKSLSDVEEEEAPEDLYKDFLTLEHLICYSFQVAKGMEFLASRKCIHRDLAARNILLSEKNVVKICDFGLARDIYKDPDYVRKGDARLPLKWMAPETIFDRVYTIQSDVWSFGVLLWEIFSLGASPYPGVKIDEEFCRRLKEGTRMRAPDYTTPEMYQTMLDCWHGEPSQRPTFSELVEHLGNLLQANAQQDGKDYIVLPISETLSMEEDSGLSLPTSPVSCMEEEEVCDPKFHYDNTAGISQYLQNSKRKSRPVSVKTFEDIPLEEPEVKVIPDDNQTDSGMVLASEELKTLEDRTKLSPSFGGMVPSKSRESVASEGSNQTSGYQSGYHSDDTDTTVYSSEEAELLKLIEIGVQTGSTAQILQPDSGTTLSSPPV

[2] = Inhibition of RET G810R (unknown origin); set-up: species or system Homo sapiens
[3] = Inhibition of human recombinant RET Y719F using Biotin-EGPWLEEEEEAYGWMDF as substrate by TR-FRET assay
[4] = system: NB1; test: cells; conditions: Homo sapiens
[5] = target: RAF proto-oncogene serine/threonine-protein kinase (Homo sapiens, UniProt P04049); test: Inhibition of CRAF (unknown origin) by kinomescan assay
Chain of RAF proto-oncogene serine/threonine-protein kinase (P04049 whole entry): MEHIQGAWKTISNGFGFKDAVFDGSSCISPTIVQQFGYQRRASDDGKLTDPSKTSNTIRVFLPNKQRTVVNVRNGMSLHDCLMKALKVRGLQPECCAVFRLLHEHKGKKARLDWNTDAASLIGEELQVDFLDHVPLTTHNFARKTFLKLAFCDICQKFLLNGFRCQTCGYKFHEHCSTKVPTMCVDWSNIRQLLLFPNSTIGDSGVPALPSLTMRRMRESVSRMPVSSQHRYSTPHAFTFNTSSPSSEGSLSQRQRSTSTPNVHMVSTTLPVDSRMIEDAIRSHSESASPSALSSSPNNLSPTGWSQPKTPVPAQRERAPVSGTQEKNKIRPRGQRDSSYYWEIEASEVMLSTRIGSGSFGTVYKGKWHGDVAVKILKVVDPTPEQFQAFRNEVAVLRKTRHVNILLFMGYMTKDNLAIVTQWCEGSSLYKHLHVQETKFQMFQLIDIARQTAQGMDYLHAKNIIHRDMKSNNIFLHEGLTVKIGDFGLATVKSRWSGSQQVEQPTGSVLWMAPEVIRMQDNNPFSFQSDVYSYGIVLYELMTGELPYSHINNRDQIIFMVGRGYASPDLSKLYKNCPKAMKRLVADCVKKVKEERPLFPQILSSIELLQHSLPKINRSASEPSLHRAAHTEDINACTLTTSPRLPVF

[6] = target: T1, Tyrosine-protein kinase ABL1 (Homo sapiens, UniProt P00519); test: Binding affinity to ABL (unknown origin) assessed as dissociation constant measured by ambit kinomescan assay
T1 sequence (P00519 whole entry): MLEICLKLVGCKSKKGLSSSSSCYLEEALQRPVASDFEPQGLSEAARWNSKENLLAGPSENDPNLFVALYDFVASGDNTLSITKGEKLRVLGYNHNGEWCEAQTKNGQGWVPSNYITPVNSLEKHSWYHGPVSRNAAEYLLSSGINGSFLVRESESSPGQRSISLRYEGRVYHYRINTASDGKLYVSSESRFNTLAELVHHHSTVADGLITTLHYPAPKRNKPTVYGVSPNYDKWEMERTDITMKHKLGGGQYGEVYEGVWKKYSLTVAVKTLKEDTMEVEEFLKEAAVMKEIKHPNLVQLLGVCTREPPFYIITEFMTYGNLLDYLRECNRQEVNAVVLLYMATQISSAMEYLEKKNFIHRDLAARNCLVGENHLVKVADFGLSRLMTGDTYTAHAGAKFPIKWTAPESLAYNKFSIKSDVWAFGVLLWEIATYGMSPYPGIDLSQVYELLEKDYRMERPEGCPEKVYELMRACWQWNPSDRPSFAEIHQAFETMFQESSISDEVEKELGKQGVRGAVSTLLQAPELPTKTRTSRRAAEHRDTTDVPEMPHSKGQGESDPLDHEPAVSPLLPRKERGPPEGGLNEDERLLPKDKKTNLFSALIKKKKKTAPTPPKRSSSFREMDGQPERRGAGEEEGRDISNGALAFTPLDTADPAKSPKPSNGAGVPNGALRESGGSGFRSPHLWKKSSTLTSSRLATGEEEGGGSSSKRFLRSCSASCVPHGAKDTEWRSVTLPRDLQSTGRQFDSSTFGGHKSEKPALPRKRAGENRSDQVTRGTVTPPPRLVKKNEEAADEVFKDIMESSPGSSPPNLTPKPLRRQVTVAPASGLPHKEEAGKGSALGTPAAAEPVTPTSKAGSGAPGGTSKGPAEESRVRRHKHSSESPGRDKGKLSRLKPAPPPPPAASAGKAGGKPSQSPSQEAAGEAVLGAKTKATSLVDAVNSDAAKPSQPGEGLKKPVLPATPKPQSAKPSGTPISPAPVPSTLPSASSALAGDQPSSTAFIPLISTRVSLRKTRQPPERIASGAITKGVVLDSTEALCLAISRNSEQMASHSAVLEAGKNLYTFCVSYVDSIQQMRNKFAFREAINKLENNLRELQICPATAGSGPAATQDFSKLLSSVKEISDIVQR

[7] = system: LNCaP; test: Cytotoxicity against human LNCaP cells expressing BRAF incubated for 72 hrs by celltitre blue assay; type: functional
[8] = system: COLO 205; test: Cytotoxicity against human COLO 205 cells expressing BRAF V600E mutant incubated for 72 hrs by celltitre blue assay; type: functional
[9] = system: K562; test: Cytotoxicity against human K562 cells expressing BCR-ABL incubated for 72 hrs by celltitre blue assay; type: functional
[10] = Cytotoxicity against HUVEC expressing VEGFR2 incubated for 72 hrs by celltitre blue assay; type: toxicity, cell-based; conditions: human
[11] = system: Hs-578T; test: Cytotoxicity against human Hs-578T cells expressing BRAF incubated for 72 hrs by celltitre blue assay; type: functional
[12] = Cytotoxicity against HUVEC expressing FLT-1 incubated for 72 hrs by celltitre blue assay; type: toxicity, cell-based; conditions: human
[13] = Inhibition of C-KIT (unknown origin) by kinomescan assay; set-up: species or system Homo sapiens
[14] = Cytotoxicity against human TT-1 cells expressing RET incubated for 72 hrs by celltitre blue assay; type: functional
[15] = target: T1, Tyrosine-protein kinase ABL1; test: Inhibition of ABL (unknown origin) by kinomescan assay
[16] = system: A-375; test: Cytotoxicity against human A-375 cells expressing BRAF V600E mutant incubated for 72 hrs by celltitre blue assay; type: functional
[17] = system: A-431; test: Cytotoxicity against human A-431 cells expressing C-KIT incubated for 72 hrs by celltitre blue assay; type: functional
[18] = system: HeLa; test: Cytotoxicity against human HeLa cells expressing CRAF incubated for 72 hrs by celltitre blue assay; type: functional
[19] = Inhibition of recombinant RET V804M (unknown origin) incubated for 120 mins by Perkin Elmer electrophoretic mobility shift platform method; set-up: species or system Homo sapiens
[20] = Inhibition of p38 (unknown origin); set-up: species or system Homo sapiens
[21] = target: Proto-oncogene tyrosine-protein kinase receptor Ret (Homo sapiens) (UniProt P07949); conditions: NIH3T3
Chain of Proto-oncogene tyrosine-protein kinase receptor Ret (Homo sapiens) (P07949 whole entry): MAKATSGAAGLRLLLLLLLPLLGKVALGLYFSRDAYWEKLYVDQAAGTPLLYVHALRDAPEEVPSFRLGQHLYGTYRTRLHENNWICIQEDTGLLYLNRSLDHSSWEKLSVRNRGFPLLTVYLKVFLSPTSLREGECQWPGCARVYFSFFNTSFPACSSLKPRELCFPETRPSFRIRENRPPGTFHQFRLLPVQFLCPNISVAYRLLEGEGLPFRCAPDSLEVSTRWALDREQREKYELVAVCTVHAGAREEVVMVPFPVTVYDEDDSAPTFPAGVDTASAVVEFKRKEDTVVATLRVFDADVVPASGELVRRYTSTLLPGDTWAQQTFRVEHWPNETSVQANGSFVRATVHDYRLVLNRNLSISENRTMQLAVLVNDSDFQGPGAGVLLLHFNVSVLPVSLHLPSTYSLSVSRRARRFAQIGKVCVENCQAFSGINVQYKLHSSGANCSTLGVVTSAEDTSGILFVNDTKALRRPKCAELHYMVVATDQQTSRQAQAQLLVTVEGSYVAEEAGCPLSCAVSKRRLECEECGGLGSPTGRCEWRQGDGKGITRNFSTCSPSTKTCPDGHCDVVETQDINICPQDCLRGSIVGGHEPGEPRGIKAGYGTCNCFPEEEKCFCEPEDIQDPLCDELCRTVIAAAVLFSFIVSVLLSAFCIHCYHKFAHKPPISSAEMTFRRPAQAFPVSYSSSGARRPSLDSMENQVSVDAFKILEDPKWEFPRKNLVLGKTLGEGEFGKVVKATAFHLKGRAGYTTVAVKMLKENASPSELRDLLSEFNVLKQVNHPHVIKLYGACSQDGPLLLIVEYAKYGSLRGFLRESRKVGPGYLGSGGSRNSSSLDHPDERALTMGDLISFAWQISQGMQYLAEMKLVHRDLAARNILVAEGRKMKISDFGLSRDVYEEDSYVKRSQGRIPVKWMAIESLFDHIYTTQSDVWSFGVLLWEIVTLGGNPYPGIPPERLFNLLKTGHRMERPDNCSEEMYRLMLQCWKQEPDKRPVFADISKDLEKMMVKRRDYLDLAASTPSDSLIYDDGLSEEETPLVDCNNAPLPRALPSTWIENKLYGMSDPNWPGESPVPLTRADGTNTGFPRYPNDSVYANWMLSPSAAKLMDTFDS

[22] = Inhibition of RET V804M (unknown origin); set-up: species or system Homo sapiens

IC50 [1]: 35 nM | IC50 [2]: > 500 nM
Structure (SMILES): COC1(C(=O)N[C@@H](C)c2ccc(-n3cc(F)cn3)nc2)CCC(c2nc(C)cc(Nc3cc(C)[nH]n3)n2)CC1 (some centres undefined)

IC50 [2]: 17 nM
Structure (SMILES): C[C@H]1CNC(=O)c2cnn3cc4c(nc23)N(Cc2cc(F)cnc2O1)[C@@H]1CCC[C@@H]1O4 [ENBEZOTINIB]

IC50 [19]: 0.8 nM | IC50 [2]: > 500 nM
Structure (SMILES): COc1ccc(CN2C3CC2CN(c2ccc(-c4cc(OCC(C)(C)O)cn5ncc(C#N)c45)cn2)C3)cn1 [SELPERCATINIB]

More lines, now with the values behind:

Structure (SMILES): CCc1cc2c(cc1N1CCC(N3CCOCC3)CC1)C(C)(C)c1[nH]c3cc(C#N)ccc3c1C2=O [ALECTINIB]
IC50 [3]: 14 nM | IC50 [4]: 4.5 nM

Structure (SMILES): COc1cc2ncnc(Oc3cccc(NC(=O)Nc4cc(C(C)(C)C(F)(F)F)on4)c3)c2cc1OC [CEP-32496]
IC50 [5]: 146 nM | Kd [6]: 2.8 nM | GI50 [7]: 6630 nM | GI50 [8]: 60 nM | GI50 [9]: 70 nM | GI50 at 72 h [10]: ≥ 700 nM | GI50 [11]: 2740 nM | GI50 at 72 h [12]: ≥ 1000 nM | IC50 [13]: 1 nM | GI50 [14]: 21 nM | IC50 [15]: 6 nM | GI50 [16]: 84 nM | GI50 [17]: 1000 nM | GI50 [18]: ≥ 3000 nM

Structure (SMILES): CNC(=O)c1cc(Oc2ccc(NC(=O)Nc3ccc(Cl)c(C(F)(F)F)c3)cc2)ccn1 [SORAFENIB]
IC50 [20]: 38 nM | GI50 [21]: 47 nM | IC50 [22]: 7.9 nM
